Experimental data taken from US20130005759A1, “SMALL MOLECULE MODIFIERS OF MICRORNA MIR-122” (North Carolina State University, priority 2010, published 2013).

Experiments:
miR-122 [1] = assay: psiCHECK-miR122 dual luciferase reporter assay in Huh7 cells; format: cell-based, human
Text: A miRNA small molecule modifier screen for miR-122 was developed based on the psiCHECK-2 (Promega) reporter plasmid (FIG. 9). This construct expresses both Renilla luciferase as well as firefly luciferase, allowing for the normalization of the signal to account for differential cellular viability and variability in transfection efficiency. The miR-122 target sequence was inserted downstream of the Renilla luciferase gene, between the PmeI and SgfI restriction sites. In another aspect of the invention, plasmids expressing luciferase or another reporter gene such as for example, fluorescent reporters (GFP and variants thereof, DsRed, etc.) or beta-galactosidase can be used to screen for small molecule modifiers of miR-122. The mi-122 target sequence may be upstream or downstream of the reporter gene. Multiple miR-122 target sites can also be inserted into or be present in the plasmid.
The presence of mature miR-122 will lead to a decrease in the Renilla luciferase signal (FIG. 1a). The ability to detect endogenous miR-122 was validated by transfecting the generated psiCHECK-miR122 construct into Huh7 and HeLa cells. After 48 hour incubation, the cells were assayed using a Dual Luciferase Assay Kit (Promega). In another embodiment, the cells can be incubated for about 24-96 hours. The Dual Luciferase Assay Kit provides a means to measure the amount of the luciferases by generating a luminescent signal. Using this assay the luminescence from the firefly luciferase reaction may be quenched while the luminescent reaction of Renilla luciferase can be activated. Other assays and procedures that can determine the amount of the one or more reporter genes or miR-122 expression, activity or function can be used. An example of another assay is Dual-Glo Assay (Promega).
The psiCHECK-miR122 vector was then employed in a small molecule screen in Huh7 cells to discover modifiers of miR-122 function. Other cells that express miR-122 such as HepG2 and Hep3B can be used in addition to or instead of Huh7 cells. An increase in the relative Renilla luciferase signal indicates a miR-122 inhibitor, while a reduction in the luciferase signal indicates a miR-122 activator. A genus of compounds that may have activity as modifiers of miR122 function are the Diversity Set II (1364 compounds) from the NCI Developmental Therapeutics Program was screened using Huh7 cells containing the psiCHECK-miR122 reporter. Cells were exposed to the small molecules and the relative luciferase signal was measured after 48 hours using a Dual Luciferase Assay Kit (Promega). In another embodiment the cells can be exposed to the small molecules for about 24-96 hours. As explained above, other assays and procedures that can determine the amount of the one or more reporter genes or miR-122 expression, activity or function can be used.
The analogs were screened for activity using the previously described miR-122 assay. All cells were treated with 10 μM of a compound and experiments were performed in triplicate to ensure statistical validity. The data was normalized to a 1% DMSO control and is reported in relative luciferase units (RLU). The standard deviation was calculated from three independent assays. Some analogs of miR-122 inhibitor compound 1 are:
Huh7 and HeLa cells were transfected at approximately 60% confluency with either the psiCHECK-Control plasmid (the original psiCHECK-2 plasmid containing no known miRNA binding site) or the psiCHECK-miR122 plasmid (0.5 μg) using X-tremGENE transfection reagent (3:2 reagent/DNA ratio; Roche) in Opti-Mem media (Invitrogen). All transfections were performed in triplicate for statistical analysis. The cells were incubated at 37° C. for 4 hours followed by the replacement of transfection media with standard DMEM growth media. After 48 hours of incubation the media was removed, cells were lysed and assayed with a Dual Luciferase Assay Kit (Promega) using a Wallac VICTOR^3V luminometer with a measurement time of 1 s and a delay time of 2 s. […]

miR-21 = miR-21 luciferase reporter assay in HeLa-miR-21-Luc cells; format: cell-based; conditions: 10 μM, 48 hours
Description: Using the previously described HeLa-miR-21-Luc cell line (a stably transfected line harboring a miR-21 binding sequence in the 3′ UTR of a firefly luciferase gene),(9) cells were grown to 80% confluency (DMEM) and treated with either DMSO, the previously reported miR-21 inhibitor, or compounds 1 and 2 at 10 μM (1% DMSO final concentration). The cells were incubated for 48 hours at 37° C. (5% CO2) and then assayed with a Bright-Glo Luciferase Kit (Promega) and analyzed using a Wallac VICTOR^3V luminometer with a measurement time of 1 s and a delay time of 2 s (FIG. 4).

miR-122 [2] = assay: quantitative RT PCR of mature miR-122 in Huh7 cells; format: cell-based, human; conditions: Huh7, 10 μM, 48 hours
Description: The activity of the small molecule modifiers was analyzed by quantitative RT PCR in order to measure their direct effects on miR-122 expression levels in Huh7 cells. […] All experiments were conducted in triplicate, and the data was normalized to a DMSO control.
Each treatment was conducted in triplicate to ensure statistical validity. Cells were then incubated at 37° C. for 48 hours (DMEM, 5% CO2). The media was removed, and cells were washed with PBS buffer (2×2 mL, pH 7.4) followed by RNA isolation with the mirPremier™ microRNA Isolation Kit (Aldrich). The RNA was quantified using a Nanodrop ND-1000 spectrophotometer and 10 ng of each RNA sample was reverse transcribed using the TaqMan™ microRNA Reverse Transcription Kit (Applied Biosystems) in conjunction with either the miR-122 or miR-21 TaqMan™ RT primer (16° C., 30 min; 42° C., 30 min; 85° C., 5 min). Quantitative Real Time PCR was conducted with a TaqMan™ 2× Universal PCR Master Mix and the appropriate TaqMan™ miRNA assay (Applied Biosystems) on a BioRad MyiQ RT-PCR thermocycler (1.3 μL RT PCR product; 95° C., 10 min; followed by 40 cycles of 95° C., 15 s; 60° C. 60 s). Threshold cycles were used to determine miRNA copy numbers, and the levels of miR-122 and miR-21 were compared via determination of threshold cycle (Ct) and conversion to copy number (copy number=10[(Ct−37.4)/−3.3]).^17 The data was then normalized to the DMSO control. The samples were also analyzed by real time PCR for the presence of pri-miR-122 transcript using the previously described primers (5′ […] 3′ (SEQ ID NO:5) and 5′ […] 3′ (SEQ ID NO:6); IDT DNA) and iQ SYBR Green Supermix for the real time PCR (95° C., 3 min; followed by 40 cycles of 95° C., 15 s; 60° C. 60 s).^14

caspase-3 and -7 = assay: Caspase-Glo 3/7 assay in HepG2 cells; format: cell-based; conditions: HepG2, 10 μM, 48 hours
Text: (§1) This enhanced caspase activity led to a reduced cell viability of ˜20% (CellTiter-Glo, Promega) (FIGS. 8A and B), exceeding previously reported reductions in cell viability due to lentiviral over-expression of miR-122 in HepG2 cells.^13 An increased caspase 3/7 level is observed in HepG2 cells due to activation of the pro-apoptic miR-122 (FIG. 8A). This increase is more pronounced in HepG2 than Huh7 cells, due to the different basal miR-122 levels in both cell lines. […] Thus, a small molecule activator of miR-122, like compound 3, has therapeutic relevance towards the selective treatment of HCC.
Both HepG2 and Huh7 cells were passaged into a 96-well plate and grown to 70% confluency. The media was then removed and replaced with standard growth media supplemented with 3 (10 μM) or a DMSO control (1% final DMSO concentration in all wells) and incubated for 48 hours at 37° C. All incubations were conducted in triplicate to ensure statistical validity. The media was removed and cells were assayed with the Caspase-Glo 3/7 (Promega) kit according to the manufacturers directions and luminescence was measured using a Wallac VICTOR^3V luminometer with a measurement time of 1 s and a delay time of 2 s.

HepG2 cells = assay: CellTiter-Glo cell viability in HepG2 cells; format: cell-based; conditions: HepG2, 10 μM, 48 hours
Huh7 cells = assay: CellTiter-Glo cell viability in Huh7 cells; format: cell-based, human; conditions: Huh7, exposure to compound
Text: as §1
HepG2 and Huh7 cells were passaged into a 96-well plate and grown to 60% confluency. The media was then removed and replaced with standard growth media supplemented with increasing concentrations of the miR-122 small molecule modifiers (0-20 μM; 1% final DMSO concentration) and incubated for 48 hours at 37° C. Cellular viability was then assessed using a Cell-Titer Glo Assay (Promega) according to the manufacturers directions and luminescence was measured using a Wallac VICTOR^3V luminometer with a measurement time of 1 s and a delay time of 2 s.

CN(C)CCN1C(=O)c2cccc3cc(N)cc(c23)C1=O [Compound 3]
IC50 (miR-122 [1]; Homo sapiens, Huh-7, Huh7, calculated from FIG. 5, read-out: IC50 (miR-122 activator, luciferase dose response)): 370 ± 20 nM
reduction of the Renilla luciferase signal (miR-122 [1]; Huh7, psiCHECK-miR122, 10 μM): 7 fold
relative luciferase units (RLU) normalized to a DMSO control (miR-122 [1]; Huh7, psiCHECK-miR122, 10 μM, mean ± SD of three independent assays): 0.11±0.02 RLU
activity in miRNA-21 reporter (luciferase signal) (miR-21): No effect
increase in miR-122 expression levels (miR-122 [2]): 438%
increase in the activity of caspase-3 and -7 (caspase-3 and -7): ~20 fold
reduced cell viability (HepG2 cells): ~20%
cell viability (in words) (Huh7 cells): only slightly affected
